Results published in patent US9399623B2, “Quinoline derivatives and their use in neurodegenerative diseases” (Merck Patent GmbH, priority 2014, dated 2016).

How the values were obtained:
P2X7 [1] = target: T1, P2X7 (Homo sapiens, UniProt Q99572); experiment: IL-1β release assay in THP-1 cells (sandwich ELISA); format: cell-based; set-up: release of mature IL-1β in the culture medium of THP-1 cells; endogenous in cells; host or cells: THP-1 cells (PMA-differentiated, LPS-primed); conditions: PMA, LPS primed, stimulated with 0.8 mM BzATP, mature IL-1β release, read-out: hTHP-1/IL-ib IC50
T1 sequence (Q99572 1-595): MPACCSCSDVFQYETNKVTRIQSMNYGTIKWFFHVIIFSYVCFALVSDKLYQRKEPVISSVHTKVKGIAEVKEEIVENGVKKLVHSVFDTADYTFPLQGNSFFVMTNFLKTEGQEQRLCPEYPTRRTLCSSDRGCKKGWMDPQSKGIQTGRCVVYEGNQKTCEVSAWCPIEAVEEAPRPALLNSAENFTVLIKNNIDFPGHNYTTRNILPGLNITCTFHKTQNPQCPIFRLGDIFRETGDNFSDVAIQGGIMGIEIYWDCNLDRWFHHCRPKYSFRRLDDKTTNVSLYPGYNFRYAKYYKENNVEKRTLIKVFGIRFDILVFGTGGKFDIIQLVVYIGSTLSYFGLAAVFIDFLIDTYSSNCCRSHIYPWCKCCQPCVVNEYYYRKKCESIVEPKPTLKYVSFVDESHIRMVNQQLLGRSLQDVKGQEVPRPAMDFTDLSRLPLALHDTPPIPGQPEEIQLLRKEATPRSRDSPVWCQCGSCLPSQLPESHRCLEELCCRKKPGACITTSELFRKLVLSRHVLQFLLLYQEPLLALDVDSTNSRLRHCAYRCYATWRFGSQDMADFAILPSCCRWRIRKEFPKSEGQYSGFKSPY
Experimental: The activation of P2X7 by ATP leads to a fast transient activation of cells resulting in influx of Ca^2+ followed by conversion of pro-IL-1β to active IL-1β. The functional activity of P2X7 compounds was measured by the release of mature IL-1β in the culture medium of THP-1 cells, detected by sandwich ELISA. Cells were maintained in complete growth medium (RPMI 1640+10% HI-FCS+2 mM L-glutamine+1×PS). […] THP-1 cells were harvested from the flask in 50 ml by centrifugation for 3 min at 100 g. The cells were resuspended to 2×10^5 cells/ml in medium supplemented with 0.5 μM PMA and incubated. The cells were washed and resuspended to 1.5×10^5 cells/ml in medium complemented with 10 ng/ml LPS, and the cells were primed for 4 h at 37° C., 5% CO2. After addition of 20 μL of prediluted test compounds, blank, standard and control reagents, cells were incubated for a further 20 min at 37° C. and stimulated with 0.8 mM BzATP for 30 minutes. The cells were centrifuged, supernatant was collected and the presence of mature IL-1β was detected using Dual human IL-1b kit following manufacturer's instruction. The tetrahydrobenzodiazepine analogs effectively modulated the activity of P2X7 in the cells as measured by the levels of pro-inflammatory cytokine IL-1β, which is released by the activation of P2X7 receptor.

P2X7 [2] = target: T1, P2X7; experiment: Pore permeation assay (YO PRO dye uptake, BzATP-induced); format: cell-based; set-up: expressed in transfected cells; host or cells: HEK293; conditions: HEK293 transfected with human P2X7 receptor; YO PRO dye 1 uM, BzATP 10 uM; read-out: hP2X7 IC50
Experimental: Agonist-induced pore formation was determined by measuring cellular uptake of YO PRO fluorescence dye in HEK293 transfected with human P2X7 receptor. A HEK293 cell over expressing human P2X7 was harvested using HQTase reagent to detach the cells from T75 cm flask. The harvested cells are centrifuged @ 1200 rpm for 5 min at room temperature. The viability of cells was determined by Trypan blue dye and the cells are plated @ 10,000 cell/well in 50 ul volume in a 384 W BD Poly lysine coated plate and incubated overnight at 37 C. After overnight incubation, the culture medium was replaced with 35 ul/well assay buffer (5 mM KCl, 0.1 mM CaCl2, 5 mM Glucose, 10 mM HEPES buffer pH7.4 containing 125 mM NaCl. The serial dilution of compounds was performed using Bravo liquid handling instrument and the compounds were added using Bravo to the cell assay plate starting at 2.5 uM with three dilutions for 10 points. The positive control inhibitor compound was added to column 23. The plate was shaken slowly on a plate shaker for 10 seconds. The cells were incubated with the compound for 20 minutes at room temperature. After the incubation period, YO PRO dye (1 uM) along with BzATP (10 uM) were added to cells at 10 ul/well. The plate was centrifuged at 1000 rpm for 5 seconds and incubated at room temperature for 30 minutes. The uptake of YO PRO dye into the cells was measured using Envision Fluorescence plate reader instrument (Perkin Elmer).

SMILES | IC50 (P2X7 [1]) [µM] | IC50 (P2X7 [2]) [µM]
O=C(NCC1CCCC(F)(F)C1)c1c(Cl)ccc2nc(N3CC[C@@H](F)C3)ccc12 (stereo partly drawn) [Compound 1, 6-Chloro-2-((R)-3-fluoropyrrolidin-1-yl)-quinoline-5-carboxylic acid (3,3-difluoro-cyclohexylmethyl)-amide] | 0.01 to 0.1 | < 0.01
C[C@H]1CCC[C@@](O)(CNC(=O)c2c(Cl)ccc3nc(N4CCCC4)ccc23)C1 [Compound 2, 6-Chloro-2-pyrrolidin-1-yl-quinoline-5-carboxylic acid ((1S,3S)-1-hydroxy-3-methyl-cyclohexylmethyl)-amide] | – | < 0.01
O=C(NCC1CCCC(F)(F)C1)c1c(Cl)ccc2nc(N3CC[C@H](F)C3)ccc12 (stereo partly drawn) [Compound 3, 6-Chloro-2-((S)-3-fluoropyrrolidin-1-yl)-quinoline-5-carboxylic acid (3,3-difluoro-cyclohexylmethyl)-amide] | 0.101 to 0.5 | < 0.01
C[C@@H]1CCC[C@](O)(CNC(=O)c2c(Cl)ccc3nc(N4CC[C@H](N(C)C)C4)ccc23)C1 [Compound 4, 6-Chloro-2-((S)-3-dimethylamino-pyrrolidin-1-yl)-quinoline-5-carboxylic acid ((1R,3R)-1-hydroxy-3-methyl-cyclohexylmethyl)-amide] | < 0.01 | < 0.01
C[C@@H]1CCC[C@](O)(CNC(=O)c2c(Cl)ccc3nc(N4CCC(F)C4)ccc23)C1 (stereo partly drawn) [Compound 5, 6-Chloro-2-(3-fluoropyrrolidin-1-yl)-quinoline-5-carboxylic acid ((1R,3R)-1-hydroxy-3-methyl-cyclohexylmethyl)-amide] | 0.01 to 0.1 | < 0.01
C[C@@H]1CCC[C@](O)(CNC(=O)c2c(Cl)ccc3nc(N4CCC(N(C)C)C4)ccc23)C1 (stereo partly drawn) [Compound 6, 6-Chloro-2-(3-dimethylamino-pyrrolidin-1-yl)-quinoline-5-carboxylic acid ((1R,3R)-1-hydroxy-3-methyl-cyclohexylmethyl)-amide] | 0.01 to 0.1 | < 0.01
C[C@H]1CCC[C@@](O)(CNC(=O)c2c(Cl)ccc3nc(C4CCCC4)ccc23)C1 [Compound 7, 6-Chloro-2-cyclopentyl-quinoline-5-carboxylic acid ((1S,3S)-1-hydroxy-3-methyl-cyclohexylmethyl)-amide] | – | < 0.01
C[C@@H]1CCC[C@](O)(CNC(=O)c2c(Cl)ccc3nc(N4CC[C@@H](F)C4)ccc23)C1 [Compound 8, 6-Chloro-2-(3-(R)-fluoropyrrolidin-1-yl)-quinoline-5-carboxylic acid ((1R,3R)-1-hydroxy-3-methyl-cyclohexylmethyl)-amide] | 0.01 to 0.1 | < 0.01
C[C@@H]1CCC[C@](O)(CNC(=O)c2c(Cl)ccc3nc(N4CC[C@H](F)C4)ccc23)C1 [Compound 9, 6-Chloro-2-(3-(S)-fluoropyrrolidin-1-yl)-quinoline-5-carboxylic acid ((1R,3R)-1-hydroxy-3-methyl-cyclohexylmethyl)-amide] | 0.01 to 0.1 | < 0.01
CC1CCCC(O)(CNC(=O)c2c(Cl)ccc3nc(N4CC[C@@H](N(C)C)C4)ccc23)C1 (stereo partly drawn) [Compound 14] | – | < 0.01
C[C@@H]1CCC[C@](O)(CNC(=O)c2c(Cl)ccc3nc(C4CCCC4)ccc23)C1 [Compound 15, 6-Chloro-2-cyclopentyl-quinoline-5-carboxylic acid ((1R,3R)-1-hydroxy-3-methyl-cyclohexylmethyl)-amide] | – | < 0.01
C[C@@H]1CCC[C@](O)(CNC(=O)c2c(Cl)ccc3nc(N4CCCC4)ccc23)C1 [Compound 16, 6-Chloro-2-pyrrolidin-1-yl-quinoline-5-carboxylic acid ((1R,3R)-1-hydroxy-3-methyl-cyclohexylmethyl)-amide] | – | < 0.01
C[C@@H]1CCC[C@](O)(CNC(=O)c2c(Cl)ccc3nc(N4CC[C@@H](N(C)C)C4)ccc23)C1 [Compound 22, 6-Chloro-2-((R)-3-dimethylamino-pyrrolidin-1-yl)-quinoline-5-carboxylic acid ((1R,3R)-1-hydroxy-3-methyl-cyclohexylmethyl)-amide] | – | 0.01 to 0.1
O=C(NCC1CCC(F)(F)CC1)c1c(Cl)ccc2nc(C3CCCC3)ccc12 [Compound 43, 6-Chloro-2-cyclopentyl-quinoline-5-carboxylic acid (4,4-difluoro-cyclohexylmethyl)-amide] | – | 0.01 to 0.1
O=C(NCC1CCC(F)(F)CC1)c1c(Cl)ccc2nc(C3CCNCC3)ccc12 [Compound 53, 6-Chloro-2-piperidin-4-yl-quinoline-5-carboxylic acid (4,4-difluorocyclohexylmethyl)-amide] | – | 0.01 to 0.1
O=C(NCC1CCC(F)(F)CC1)c1c(Cl)ccc2nc(N3CCC(O)C3)ccc12 (stereo not drawn) [Compound 57, 6-Chloro-2-(3-hydroxy-pyrrolidin-1-yl)-quinoline-5-carboxylic acid (4,4-difluoro-cyclo hexylmethyl)-amide] | – | 0.01 to 0.1
CC(C)(C)OC(=O)N1CCC(c2ccc3c(C(=O)NCC4CCC(F)(F)CC4)c(Cl)ccc3n2)CC1 [Compound 71, 4-{6-Chloro-5-[(4,4-difluoro-cyclohexylmethyl)-carbamoyl]-quinolin-2-yl}-piperidine-1-carboxylic acid tert-butyl ester] | – | 0.01 to 0.1
O=C1C=C(c2ccc3c(C(=O)NCC4CCC(F)(F)CC4)c(Cl)ccc3n2)CC1 [Compound 72] | – | 0.01 to 0.1
COCCCNc1ccc2c(C(=O)NCC3CCC(F)(F)CC3)c(Cl)ccc2n1 [Compound 77, 6-Chloro-2-(3-methoxy-propylamino)-quinoline-5-carboxylic acid (4,4-difluoro-cyclohexyl methyl)-amide] | – | 0.101 to 0.5
O=C(NCC1CCC(F)(F)CC1)c1c(Cl)ccc2nc(N3CCCC(C(=O)O)C3)ccc12 (stereo not drawn) [Compound 79, 1-{6-Chloro-5-[(4,4-difluoro-cyclohexylmethyl)-carbamoyl]-quinolin-2-yl}-piperidine-3-carboxylic acid] | – | 0.101 to 0.5
CCOC(=O)CCNc1ccc2c(C(=O)NCC3CCC(F)(F)CC3)c(Cl)ccc2n1 [Compound 81, 3-{6-Chloro-5-[(4,4-difluoro-cyclohexylmethyl)-carbamoyl]-quinolin-2-ylamino}-propionic acid ethyl ester] | – | 0.101 to 0.5
CN(C)C(=O)CCNc1ccc2c(C(=O)NCC3CCC(F)(F)CC3)c(Cl)ccc2n1 [Compound 82, 6-Chloro-2-(2-dimethylcarbamoyl-ethylamino)-quinoline-5-carboxylic acid (4,4-difluoro-cyclo hexyl methyl)-amide] | – | 0.101 to 0.5
O=C(O)CCNc1ccc2c(C(=O)NCC3CCC(F)(F)CC3)c(Cl)ccc2n1 [Compound 83, 3-{6-Chloro-5-[(4,4-difluorocyclohexylmethyl)-carbamoyl]-quinolin-2-ylamino}-propionic acid] | – | > 1
